Measurements reported in patent US20130236529A1, “COMPOSITION AND METHODS TO ENHANCE ANTI-OXIDATION, GUT FLORA AND IMMUNITY IN PETS” (FLAVITPURE, INC., priority 2012, published 2013).

How the values were obtained:
[1] = oxidation of 2′-deoxyguanosine, Fenton reaction catalyzed by copper; cited from earlier work
[2] = ORAC hydro antioxidant capacity assay
Excerpt: The majority of HAT-based assays apply a competitive reaction scheme, in which antioxidant and substrate compete for thermally generated peroxyl radicals through the decomposition of azo compounds. ORAC is an assay for the […] oxygen radical absorbance capacity. The ORAC hydro tests the capacity dihydroquercetin generated hydrogen atom transfer (HAT) to compete for thermally generated peroxyl radicals and hydroxyl radicals. For the latter it is necessary to use the ORAC assay test. Unlike electron transfer based assays that measure an antioxidant's reducing capacity, and the hat-based assays measure the hydrogen atom donating capacity. The hydrogen atom transfer is a key step in the radical chain reaction. Therefore, the hat-based assays are more relevant to the radical chain-breaking antioxidant capacity. Among all the hat-based assays, ORAC adopted an AUC (area under curve) technique to quantify antioxidant capacity. […] This approach unifies the lag time method and initial rate method, and it is particularly useful for food samples, which often contain multiple ingredients and have complex reaction kinetics. Therefore, the ORAC assay has been broadly applied in academics and the food and supplement industry as the method of choice to quantify antioxidant capacity. […]

[3] = relative to quercetin; cited from earlier work
NQO1 = conditions: microarray, in the presence of taxifolin; cited from earlier work
GSTM1 = conditions: microarray, in the presence of taxifolin; cited from earlier work
CYP2E1 = conditions: microarray, in the presence of taxifolin; cited from earlier work
[4] = system: human lung embryonic fibroblasts (TIG-1); conditions: TIG-1 cells; cited from earlier work
[5] = system: umbilical vein endothelial (HUVE) cells; conditions: cited from earlier work

Compound | pro-oxidant activity [1] | orachydro value ([2]; per 420 mg capsule) | orachydro value ([2]; per gram) | times less mutagenic than quercetin [3] | expression of phase II detoxification enzyme NQO1 (NQO1) | expression of phase II detoxification enzyme GSTM1 (GSTM1) | expression of phase I detoxification enzyme CYP2E1 (CYP2E1) | 50% lethal concentration [4] | 50% lethal concentration [5]
catechin [reference compound] | did not present pro-oxidant activity |  |  |  |  |  |  |  | 
O=C1c2c(O)cc(O)cc2O[C@H](c2ccc(O)c(O)c2)[C@H]1O [Dihydroquercetin] | did not present pro-oxidant activity | ≥ 300 micromole of trolox equivalent per 420 mg capsule | ≥ 800 micromole trolox equivalent per gram | 400 times | upregulated | upregulated | down regulated | > 300 µmol | > 200 µmol
